Data taken from publication PMC8148378 (Chemical Science, 2019).
In brackets after ≈: the same amount, converted by molar mass.

Columns and labels:
E. coli ΔtolC = test: MIC determination; assay type: cell-based; settings: Escherichia coli, read-out: MIC E. coli ΔtolC
E. coli WT DSM-1116 = test: MIC determination; assay type: cell-based; settings: Escherichia coli, DSM1116, read-out: MIC E. coli WT, DSM-1116
[1] = test system: P. aeruginosa ΔmexAB (PA14ΔmexAB); test: MIC determination; assay type: cell-based; settings: Pseudomonas aeruginosa, read-out: MIC P. aeruginosa ΔmexAB
P. aeruginosa WT PA14 = test: MIC determination; assay type: cell-based, Pseudomonas aeruginosa; settings: for MIC: Pseudomonas aeruginosa, PA14, read-out: MIC P. aeruginosa WT, PA14
S. aureus ATCC29213 = test: MIC determination; assay type: cell-based; settings: Staphylococcus aureus, ATCC29213, read-out: MIC S. aureus, ATCC29213
E. coli gyrase [2] = biological target: T1, E. coli gyrase (Escherichia coli, UniProt P0AES4); test: DNA gyrase supercoiling assay, method a; assay type: biochemical
[3] = assay type: physicochemical
E. coli gyrase [4] = biological target: T1, E. coli gyrase; test: DNA gyrase supercoiling assay, method b; assay type: biochemical; settings: for fold decrease of gyrase inhibition: compared to 22
E. coli WT-3 = test: MIC determination, larger panel; assay type: cell-based; settings: Escherichia coli, WT3, read-out: MIC E. coli WT-3
E. cloacae DSM-30054 = test: MIC determination, larger panel; assay type: cell-based; settings: Enterobacter cloacae, DSM30054, read-out: MIC E. cloacae
K. pneumoniae DSM-30104 = test: MIC determination, larger panel; assay type: cell-based; settings: Klebsiella pneumoniae, DSM30104, read-out: MIC K. pneumoniae
S. marcescens DSM-30121 = test: MIC determination, larger panel; assay type: cell-based; settings: Serratia marcescens, DSM30121, read-out: MIC S. marcescens
P. mirabilis DSM-4479 = test: MIC determination, larger panel; assay type: cell-based; settings: Proteus mirabilis, DSM4479, read-out: MIC P. mirabilis
E. aerogenes DSM-30053 = test: MIC determination, larger panel; assay type: cell-based, Enterobacter aerogenes; settings: Klebsiella aerogenes, DSM30053, read-out: MIC E. aerogenes
[5] = test system: P. aeruginosa ESBL 1 DSM-24600; test: MIC determination, larger panel; assay type: cell-based; settings: Pseudomonas aeruginosa, DSM24600, read-out: MIC P. aeruginosa ESBL 1
[6] = test system: P. aeruginosa ESBL 2 DSM-46316; test: MIC determination, larger panel; assay type: cell-based; settings: Pseudomonas aeruginosa, DSM46316, read-out: MIC P. aeruginosa ESBL 2
A. baumannii DSM-30008 = test: MIC determination, larger panel; assay type: cell-based; settings: Acinetobacter baumannii, DSM30008, read-out: MIC A. baumannii, DSM-30008
E. faecalis ATCC-29212 = test: MIC determination, larger panel; assay type: cell-based; settings: Enterococcus faecalis, ATCC29212, read-out: MIC E. faecalis
P. dispersa = test: MIC against the AlbD producer; assay type: cell-based; settings: Pantoea dispersa, read-out: MIC P. dispersa

T1 sequence (P0AES4 whole entry): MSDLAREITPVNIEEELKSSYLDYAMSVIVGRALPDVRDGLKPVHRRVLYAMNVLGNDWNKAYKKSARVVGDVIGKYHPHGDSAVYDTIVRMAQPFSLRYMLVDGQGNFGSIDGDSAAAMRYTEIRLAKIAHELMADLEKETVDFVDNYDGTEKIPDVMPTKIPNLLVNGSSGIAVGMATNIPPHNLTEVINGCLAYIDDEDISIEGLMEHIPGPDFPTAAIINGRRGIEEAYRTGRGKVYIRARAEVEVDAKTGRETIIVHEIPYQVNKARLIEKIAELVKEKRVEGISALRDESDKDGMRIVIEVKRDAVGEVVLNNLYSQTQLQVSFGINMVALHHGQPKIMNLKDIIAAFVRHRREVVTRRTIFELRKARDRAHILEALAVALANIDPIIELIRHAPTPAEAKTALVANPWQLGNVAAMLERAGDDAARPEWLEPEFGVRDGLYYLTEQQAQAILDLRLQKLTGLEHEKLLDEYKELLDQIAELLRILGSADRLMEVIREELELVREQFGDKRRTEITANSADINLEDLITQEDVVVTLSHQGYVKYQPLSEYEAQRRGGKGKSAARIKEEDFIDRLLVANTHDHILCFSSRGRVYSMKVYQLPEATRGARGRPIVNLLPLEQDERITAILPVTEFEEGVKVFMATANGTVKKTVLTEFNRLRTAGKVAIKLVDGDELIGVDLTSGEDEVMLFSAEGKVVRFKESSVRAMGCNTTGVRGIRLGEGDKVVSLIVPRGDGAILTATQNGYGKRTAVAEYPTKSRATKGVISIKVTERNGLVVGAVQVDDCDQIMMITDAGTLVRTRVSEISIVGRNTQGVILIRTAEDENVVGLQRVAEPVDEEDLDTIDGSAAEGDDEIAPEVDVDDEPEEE

Row | Structure (SMILES) | MIC (E. coli ΔtolC) [µg/mL] | MIC (E. coli WT DSM-1116) [µg/mL] | MIC [1] [µg/mL] | MIC (P. aeruginosa WT PA14) [µg/mL] | MIC (S. aureus ATCC29213) [µg/mL] | MIC (E. coli WT-3) [µg/mL] | also measured
1 | CC(C)Oc1c(NC(=O)c2ccc(NC(=O)[C@H](CC(N)=O)NC(=O)c3ccc(NC(=O)c4ccc([N+](=O)[O-])cc4)cc3)cc2)ccc(C(=O)Nc2ccc(C(=O)O)cc2)c1O [Compound 4] | 0.125 (≈ 0.15 µM) | 1 (≈ 1.2 µM) | 1 (≈ 1.2 µM) | > 64 | 1 (≈ 1.2 µM) | – | MIC P. aeruginosa WT (P. aeruginosa WT PA14; PA14): >64 µg/mL; IC50 (E. coli gyrase [2]): 0.11 µM; pKa [3]: < 8
2 | CC(C)Oc1c(NC(=O)c2ccc(NC(=O)[C@H](CC(N)=O)NC(=O)c3ccc(NC(=O)c4ccccc4)cc3)cc2)ccc(C(=O)Nc2ccc(C(=O)O)cc2)c1O [Compound 15] | – | > 64 | – | – | – | – | –
3 | CC(C)Oc1c(NC(=O)c2ccc(NC(=O)[C@H](CC(N)=O)NC(=O)c3ccc(NC(=O)c4ccc(C(F)(F)F)cc4)cc3)cc2)ccc(C(=O)Nc2ccc(C(=O)O)cc2)c1O [Compound 23] | – | – | – | – | 16 to 32 (≈ 18.7 to 37.4 µM) | – | –
4 | CC(C)Oc1c(NC(=O)c2ccc(NC(=O)[C@H](CC(N)=O)NC(=O)c3ccc(NC(=O)c4ccc(NC(=O)c5ccc([N+](=O)[O-])cc5)cc4)cc3)cc2)ccc(C(=O)Nc2ccc(C(=O)O)cc2)c1O [Compound 24] | – | – | – | – | – | – | fold reduced inhibitory activity in the gyrase assay (E. coli gyrase [4]; compared to 4): 20 fold
5 | CC(C)Oc1c(NC(=O)c2ccc(NC(=O)[C@H](CC(N)=O)NC(=O)c3ccc(NC(=O)c4ccc(C#N)cn4)cc3)cc2)ccc(C(=O)Nc2ccc(C(=O)O)cc2)c1O [Compound 31] | – | – | – | – | – | 2 (≈ 2.46 µM) | –
6 | CC(C)Oc1c(NC(=O)c2ccc(NC(=O)[C@H](CC(N)=O)NC(=O)c3ccc(NC(=O)c4ccc(C#N)s4)cc3)cc2)ccc(C(=O)Nc2ccc(C(=O)O)cc2)c1O [Compound 32] | – | – | – | – | – | 1 (≈ 1.22 µM) | MIC (E. cloacae DSM-30054): > 64 µg/mL; MIC (K. pneumoniae DSM-30104): > 64 µg/mL; MIC (S. marcescens DSM-30121): > 64 µg/mL; MIC (P. mirabilis DSM-4479): > 64 µg/mL
7 | C/C(=C\c1ccc(O)cc1)C(=O)Nc1ccc(C(=O)N[C@@H](CC(N)=O)C(=O)Nc2ccc(C(=O)Nc3ccc(C(=O)Nc4ccc(C(=O)O)cc4)c(O)c3OC(C)C)cc2)cc1 [Compound 45] | – | – | – | – | – | 0.125 (≈ 0.148 µM) | MIC (E. aerogenes DSM-30053): 1 µg/mL (≈ 1.19 µM); MIC (E. cloacae DSM-30054): > 64 µg/mL; MIC [5]: > 64 µg/mL; MIC [6]: 2 µg/mL (≈ 2.37 µM); MIC (K. pneumoniae DSM-30104): > 64 µg/mL; MIC (S. marcescens DSM-30121): 64 µg/mL (≈ 75.9 µM); MIC (P. mirabilis DSM-4479): 2 µg/mL (≈ 2.37 µM)
8 | C/C(=C\c1ccc(C#N)cc1)C(=O)Nc1ccc(C(=O)N[C@@H](CC(N)=O)C(=O)Nc2ccc(C(=O)Nc3ccc(C(=O)Nc4ccc(C(=O)O)cc4)c(O)c3OC(C)C)cc2)cc1 [Compound 46] | – | – | – | – | – | 0.125 (≈ 0.147 µM) | MIC (A. baumannii DSM-30008): 0.06 µg/mL (≈ 0.0704 µM)
9 | CC(C)Oc1cc(C(=O)Nc2ccc(C(=O)O)cc2)ccc1NC(=O)c1ccc(NC(=O)[C@H](CC(N)=O)NC(=O)c2ccc(NC(=O)c3ccc([N+](=O)[O-])cc3)cc2)cc1 [Compound 52] | 0.06 (≈ 0.0735 µM) | > 64 | 1 (≈ 1.23 µM) | > 64 | > 64 | – | –
10 | CC(C)COc1c(NC(=O)c2ccc(NC(=O)[C@H](CC(N)=O)NC(=O)c3ccc(NC(=O)c4ccc([N+](=O)[O-])cc4)cc3)cc2)ccc(C(=O)Nc2ccc(C(=O)O)cc2)c1O [Compound 53] | 2 (≈ 2.36 µM) | > 64 | > 64 | > 64 | 1 (≈ 1.18 µM) | – | –
11 | Cn1cc(NC(=O)C(CC(N)=O)NC(=O)c2ccc(NC(=O)c3ccc(C#N)cc3)cc2)cc1-c1nc2ccc(C(=O)Nc3ccc(C(=O)O)cc3)c(O)c2[nH]1 (centres unmarked) [Compound 56] | – | – | – | – | – | – | IC50 (E. coli gyrase [2]): 10.9 µM; fold decrease of gyrase inhibition (E. coli gyrase [4]): approximately 100 fold
12 | CC(C)Oc1c(-n2cc(-c3ccc(NC(=O)C(CC(N)=O)NC(=O)c4ccc(NC(=O)c5ccc(C#N)cc5)cc4)cc3)nn2)ccc(C(=O)Nc2ccc(C(=O)O)cc2)c1O (centres unmarked) [Compound 61] | – | – | – | – | – | 16 (≈ 19.1 µM) | fold decrease of gyrase inhibition (E. coli gyrase [4]): ca. 20 fold; MIC (E. faecalis ATCC-29212): 16 µg/mL (≈ 19.1 µM); MIC (A. baumannii DSM-30008): 8 µg/mL (≈ 9.57 µM); MIC (E. aerogenes DSM-30053): 1 µg/mL (≈ 1.2 µM); MIC (E. cloacae DSM-30054): > 64 µg/mL; MIC [5]: 16 µg/mL (≈ 19.1 µM); MIC [6]: 16 µg/mL (≈ 19.1 µM); MIC (K. pneumoniae DSM-30104): > 64 µg/mL; MIC (S. marcescens DSM-30121): > 64 µg/mL; MIC (P. mirabilis DSM-4479): 16 µg/mL (≈ 19.1 µM); MIC (P. dispersa): 1 µg/mL (≈ 1.2 µM)
13 | CC(C)Oc1c(NC(=O)c2ccc(NC(=O)[C@H](CC(N)=O)NC(=O)c3ccc(NC(=O)c4ccc(C#N)cc4)cc3)cc2)ccc(C(=O)O)c1O [Compound 67] | – | – | – | – | – | – | fold decrease of gyrase inhibition (E. coli gyrase [4]): more than 100 fold
14 | CC(C)Oc1c(NC(=O)c2ccc(NC(=O)c3ccc(NC(=O)[C@H](CC(N)=O)NC(=O)c4ccc(NC(=O)c5ccc([N+](=O)[O-])cc5)cc4)cc3)c(OC(C)C)c2O)ccc(C(=O)O)c1O [Compound 78] | 0.125 (≈ 0.138 µM) | 0.5 (≈ 0.552 µM) | 1 (≈ 1.1 µM) | > 64 | 0.05 (≈ 0.0552 µM) | – | IC50 (E. coli gyrase [4]): 200 nM
15 | CC(C)Oc1c(NC(=O)c2ccc(NC(=O)c3ccc(NC(=O)[C@H](CC(N)=O)NC(=O)c4ccc(NC(=O)c5ccc(C#N)cc5)cc4)cc3)c(OC(C)C)c2O)ccc(C(=O)O)c1O [Compound 79] | ≤ 0.03 | 0.25 (≈ 0.282 µM) | 1 (≈ 1.13 µM) | 2 (≈ 2.26 µM) | ≤ 0.03 | – | IC50 (E. coli gyrase [4]): 600 nM
16 | CC(C)Oc1c(NC(=O)c2ccc(NC(=O)c3ccc(NC(=O)[C@H](CC(N)=O)NC(=O)c4ccc(NC(=O)c5ccc(C#N)cn5)cc4)cc3)c(OC(C)C)c2O)ccc(C(=O)O)c1O [Compound 80] | ≤ 0.03 | 0.06 (≈ 0.0677 µM) | 0.5 (≈ 0.564 µM) | > 64 | ≤ 0.03 | 0.5 (≈ 0.564 µM) | MIC (E. faecalis ATCC-29212): ≤ 0.03 µg/mL; MIC (A. baumannii DSM-30008): 0.25 µg/mL (≈ 0.282 µM); MIC (E. aerogenes DSM-30053): 1 µg/mL (≈ 1.13 µM); MIC (E. cloacae DSM-30054): > 64 µg/mL; MIC [5]: > 64 µg/mL; MIC [6]: > 64 µg/mL; MIC (S. marcescens DSM-30121): > 64 µg/mL
17 | CC(C)Oc1c(NC(=O)c2ccc(NC(=O)c3ccc(NC(=O)[C@H](CC(N)=O)NC(=O)c4ccc(NC(=O)c5ccc(C#N)s5)cc4)cc3)c(OC(C)C)c2O)ccc(C(=O)O)c1O [Compound 81] | 0.06 (≈ 0.0673 µM) | 0.125 (≈ 0.14 µM) | 2 (≈ 2.24 µM) | > 64 | 0.06 (≈ 0.0673 µM) | 0.5 (≈ 0.561 µM) | MIC (E. faecalis ATCC-29212): ≤ 0.03 µg/mL; MIC (A. baumannii DSM-30008): 1 µg/mL (≈ 1.12 µM); MIC (E. aerogenes DSM-30053): 1 µg/mL (≈ 1.12 µM); MIC (E. cloacae DSM-30054): > 64 µg/mL; MIC [5]: > 64 µg/mL; MIC [6]: > 64 µg/mL; MIC (K. pneumoniae DSM-30104): 1 µg/mL (≈ 1.12 µM); MIC (S. marcescens DSM-30121): > 64 µg/mL; MIC (P. mirabilis DSM-4479): > 64 µg/mL
18 | C/C(=C\c1ccc(C#N)cc1)C(=O)Nc1ccc(C(=O)N[C@@H](CC(N)=O)C(=O)Nc2ccc(C(=O)Nc3ccc(C(=O)Nc4ccc(C(=O)O)c(O)c4OC(C)C)c(O)c3OC(C)C)cc2)cc1 [Compound 82] | ≤ 0.03 | 0.125 (≈ 0.135 µM) | 0.25 (≈ 0.27 µM) | 1 (≈ 1.08 µM) | 0.06 (≈ 0.0648 µM) | – | IC50 (E. coli gyrase [4]): 200 nM
19 | COC(=O)c1ccc(NC(=O)c2ccc(NC(=O)c3ccc(NC(=O)[C@H](CC(N)=O)NC(=O)c4ccc(NC(=O)c5ccc([N+](=O)[O-])cc5)cc4)cc3)c(OC(C)C)c2)cc1 [Compound 129] | > 64 | > 64 | > 64 | > 64 | > 64 | – | –
20 | O=C(O)c1cn(C2CC2)c2cc(N3CCNCC3)c(F)cc2c1=O [ciprofloxacin, reference compound] | – | – | – | – | – | – | MIC (E. faecalis ATCC-29212): 1 µg/mL (≈ 3.02 µM); MIC (A. baumannii DSM-30008): 0.32 µg/mL (≈ 0.966 µM); MIC [5]: 8 µg/mL (≈ 24.1 µM); MIC (P. mirabilis DSM-4479): 0.06 µg/mL (≈ 0.181 µM)
